Experiments:
[1] = test system: pan-methyl-H3K9 levels in MCF-7 cells; assay: Western blotting of pan-methyl-H3K9 levels; assay type: cell-based, human; conditions: MCF-7, 24 h, three concentrations (1, 10, 30 μM)
Method: Histone isolation was performed according to acid extraction of histones protocol of Shechter and colleagues. Histone concentration was determined by running 5 μL of samples and known concentrations of commercially available purified calf thymus histones (from Sigma Aldrich Cat. #000000010223565001) on a SDS-PAGE gel. The gel is stained with Coomassie blue G 250 (BIO-RAD Cat. #161-0786) for 1 hour at room temperature and then destained in distilled water. The gel image is acquired with ChemiDoc XRS+ Imaging System (Bio-Rad, Hercules, CA, USA) and the volumes of bands of the samples are compared to standard concentrations of calf thymus histone.
Proteins were resolved on a 12% (histones) or 5% (JARID1B) denaturing polyacrylamide gel, using either 4 μg of histone preparation or 40 μg of cell lysate. […] Blots were scanned and analyzed with a ChemiDoc XRS+ Imaging System (Bio-Rad). The volumes of each band of protein was acquired using Bio-Rad’s ImageLab software by means of volume tools using global quantification. The signal for each protein was normalized to the housekeeping protein and ratios with average control values were determined. For histones as loading control was used either total histone H3 detected by a specific antibody or histone H1 levels by staining the upper part of the gel properly cut before protein transfer on nitrocellulose membrane.

KDM5 enzymes = assay: Enzymatic inhibition assay (Epigenase JARID Demethylase Activity/Inhibition Assay Kit, fluorometric); assay type: biochemical; conditions: in vitro, toward KDM5 enzymes; This work
Method: Inhibition by RS5033 (IC50) was determined by the Epigenase™ JARID Demethylase Activity/Inhibition Assay Kit (Fluorometric) (#P-3083-48 Epigentek, Farmingdale, NY, USA) which is a complete set of optimized reagents, designed for an easy and fast fluorometric measurement of JARID activity or inhibition. The antibody-based, immune-specific method directly detects JARID-converted demethylated products, rather than by- products, in a 96 stripwell microplate format.

HeLa cells = test system: HeLa cells; design: method as in PMID 24489688; conditions: without affecting methylation of other lysins; cited from earlier work

Row | Structure (SMILES) | H3K9me3 (pan-methyl-H3K9) levels [1] | IC50 (KDM5 enzymes) [nM] | H3K4 demethylation in HeLa cells (HeLa cells)
1 | CCOC(=O)c1ccccc1C(=O)c1cccc(NS(=O)(=O)c2ccc(OC)cc2)c1 [RS5033] | not affected | 1000 | 
2 | CCOC(=O)c1cccn1C(=O)c1cccc(NS(=O)(=O)c2ccc(OC)cc2)c1 [RS3195] |  |  | decrease H3K4 demethylation

— PMC6540222, “Small Molecule Inhibitors of KDM5 Histone Demethylases Increase the Radiosensitivity of Breast Cancer Cells Overexpressing JARID1B” (Molecules, 2019)
